In US20260335323A1, “CHIMERIC MOLECULE” (UCL Business Ltd, priority 2023, published 2026):

Key:
SH-SY5Y cells = assay: mito-mKeima mitophagy assay (mitophagy index); type: cell-based, human; settings: mitochondrial toxin treatment
Method: FIG. 1. The structure of AUTAC-4 is shown in (A). (B) Representative images of SH-SY5Y cells stably expressing the mito-mKeima reporter treated with AUTAC4 for 18 h. Nuclei were stained with Hoechst 33342, healthy mitochondria are shown in green and mitochondria in lysosomes are shown in red. (C-E) Fold change in mitophagy index over time after treatment with increasing concentrations of AUTAC4 under treatment with DMSO (C), 3 mM CCCP (D) or 0.1/0.1 mM antimycin/oligomycin (E), also for 18 h. (F) Quantification of changes in mitochondrial membrane potential over time (DYm) by measuring the TMRM relative fluorescence intensity (RFI) treated with DMSO, 10 mM CCCP, 10 mM and 20 mM AUTAC4. Normalised to number of nuclei. (G) Representative western blot of SH-SY5Y cells treated with DMSO, 10 mM AUTAC4 or 10 mM AUTAC4+0.1/0.1 mM antimycin/oligomycin for 18 h and, probed for p62, b-actin and Tom20. Quantifications of western blot for changes in Tom20 and p62 levels shown in (H) and (I), respectively. (J) Representative images of PANC-1 cells stably expressing the mCherry-EGFP-LC3 tandem reporter. Nuclei stained with Hoechst 33342, autophagosomes are shown in the EGFP channel and autolysosomes in the mCherry channel. Fold change in the number of autophagosome (K) and autolysosome (L) puncta in AUTAC4 treated cells. All data shown are mean±SEM, n=3, *p<0.05, *** p<0.001. For mito-mKeima experiments, statistics were calculated by Two-way ANOVA with Tukey's multiple comparisons test. For western blots, TMRM and LC3 tandem reporter assay, statistics were calculated with one-way ANOVA with Tukey's multiple comparisons test.
(§1) FIG. 5. ULKTACs induce potent mitophagy after colocalisation and local activation of ULK1 at mitochondria (A) Representative immunofluorescence of PANC-1 cells treated with CCCP, ULKTACs or both and immunostained for TOM20 and ULK1 and counterstained with Alexa 488 and 568, respectively. Nuclei stained with Hoechst 33342. (B) Quantification of the colocalised ULK1 to TOM20 spot area of PANC-1 cells treated with DMSO, 5 mM CCCP, 10 mM BL-918, 10 mM BL-918+5 mM CCCP, […] NZ-65, […] NZ-65+5 mM CCCP, […] NZ-66, […] NZ-66+5 mM CCCP, 50 mM TSPO ligand, […] NZ-65+50 mM TSPO ligand, […] NZ-66+50 mM TSPO ligand. (C) Western blot of SH-SY5Y cells treated with 1 mM ULKTACs, 5 mM CCCP or both, probed for Mfn2, b-Actin and Tom20—quantifications are shown in (D) for Mfn2, normalised to Actin. (E) Representative images of SH-SY5Y cells stably expressing the mito-mKeima reporter treated with 3 mM CCCP, NZ-65 or both. Nuclei were stained with Hoechst 33342, healthy mitochondria are shown in green and mitochondria in lysosomes are shown in red. Fold change in mitophagy index over time after treatment for the indicated timepoints with title treatments alone or co-treated with 1.25 mM ULKTAC or 10 mM ULKTAC NZ-65 (F) or NZ-66 (G). Fold change in mitophagy index over time after treatment for the indicated timepoints with DMSO, 1.25 µM NZ-65 or NZ-66±50 µM TSPO ligand under co-treatment with DMSO (H) or 3 μM CCCP (I). […] Normalised to number of nuclei. All data shown are mean±SEM, n=3, *p<0.05, ** p<0.01, *** p<0.001. For colocalisation and TMRM experiments, one-way ANOVA with Dunnett's multiple comparisons test. For western blots, one-way ANOVA with Tukey's multiple comparisons test and unpaired t-test. For mito-mKeima experiment, two-way ANOVA with Tukey's multiple comparisons test.
SH-SY5Y stably expressing mito-mKeima were produced as previously described28,29. Cells were seeded in 384 well CellCarrier Ultra plates (PerkinElmer) 24 hours before treatment in complete media without phenol red. Cells were treated with increasing concentrations of BL-918, AUTAC4, NZ-65 or NZ-66, 24 hours prior to treatment with increasing concentrations of mitochondrial uncouplers to cause mitochondrial insult. SH-SY5Y mitochondria were treated with DMSO, 3 μM CCCP, 10 μM CCCP, 0.1/0.1 μM antimycin/oligomycin (AO), 0.5/0.5 µM AO or 1/1 μM AO. […]

Mfn2 = assay: Western blot, Mfn2 degradation in MEF WT; type: cell-based, mouse; settings: with ULKTAC; cells not given
Method: FIG. 6. ULKTACs rely on ULK1 for the redirection of autophagy components to mitochondria and subsequent mitophagic degradation (A) Western blot of mouse embryonic fibroblasts (MEF) WT and MEF ULK1/2^−/− treated with 1 mM ULKTACs, 5 mM CCCP or both and probed for ULK1, Mfn2 and Actin—quantification of the relative intensity of Mfn2 shown in (B), normalised to Actin. Representative immunofluorescence of MEF WT (C) and MEF ULK1/2^−/− (D) treated with 5 mM CCCP, 1 mM ULKTACs or both and immunostained for Alexa 488 ATP5a and Alexa 647 LC3B. Quantification of the colocalised LC3 to ATP5a spot area shown in WT vs ULK1/2^−/− treated MEF cells shown in (E). Data shown are mean±SEM, n=3, *p<0.05, ** p<0.01, *** p<0.001, Two-way ANOVA with Tukey's multiple comparisons test.
Cells were homogenised in protein lysis buffer consisting of 0.1 M Tris pH 8.0, 0.1 M NaCl, 5% glycerol, IGEPAL® CA-630 (#18896. Sigma-Aldrich) and 5 mM EDTA, 0.1 M N-ethyl maleimide (ThermoFisher, #23030) and protease inhibitor (Cell Signalling Technologies, #5871). Protein concentrations were determined using the BCA assay to ensure equal loading. […] The membranes were immunoblotted with primary antibodies, overnight at 4° C. ULK1 (D8H5) Rabbit mAb (#0854) [1:1000], Phospho-ULK1 (Ser 317) Rabbit antibody (#37762) [1:1000], LC3B Rabbit antibody (#2775) [1:1000], TOM20 (D8T4N) Rabbit mAb (#42406) [1:1000] and, Phospho-Ubiquitin (Ser 65) (E2J6T) Rabbit mAb (#62082) [1:500] were obtained from Cell Signalling Technologies. Recombinant Anti-Vinculin Rabbit antibody (EPR8185) (#ab129002) [1:5000] and Anti-Mitofusin2 mouse antibody (6A8) (#ab56889) [1:1000] were purchased from Abcam. Anti-Actin mouse monoclonal antibody (#A1978) [1:1000] and Anti-rabbit p62/SQSTM1 (#P0067) [1:1000], were purchased from Sigma-Aldrich. Mono- and polyubiquitinylated conjugates monoclonal antibody (FK2) (BML-PW8810-0100) [1:500] was purchased from Enzo Life Sciences. Anti BRD4 (E2A7X) rabbit monoclonal antibody (#13440), Anti c-MYC (D84C12) rabbit monoclonal antibody (#5605) [1:1000], Anti GAPDH (D4C6R) mouse monoclonal antibody (#97166) [1:1000], Anti Max (S20) rabbit monoclonal antibody (#4739) [1:1000] were purchased from Cell Signalling Technologies. Anti Phospho-CHK1 (Ser 345) rabbit monoclonal antibody (#2341) [1:1000], Anti gamma-H2AX (Ser 139) rabbit monoclonal antibody (#2577) [1:1000] were obtained from Cell Signalling Technologies, Anti RPA32/RPA2 (phospho S4/S8) rabbit monoclonal antibody (ab87277) [1:1000] were obtained from Abcam.
Membranes were then incubated with horseradish peroxidase (HRP)-conjugated secondary antibodies (Rabbit #7074 and Mouse #7076) purchased from Cell Signalling Technologies for 1 hour and the HRP signal was detected using EZ-ECL Enhanced Chemiluminescence Detection Kit for HRP (#20-500-500, Sartorius), and imaged with an Alliance Q9 Advanced (UVITec). Where required, membranes were stripped with mild stripping buffer consisting of 0.2 M glycine, 3.47 mM SDS, 1% Tween 20, pH 2.2, blocked for 1 hour with TBS-T+3% BSA and re-probed with primary antibodies.
Therefore, we conclude that NZ-65 and NZ-66 are novel ULKTAC molecules that initiate the recruitment of ULK1 to mitochondria, leading to an increase in local ULK1 activity, the formation of an autophagosome and mitophagy.

ULK1 = biological target: T1, ULK1 (Homo sapiens, UniProt O75385); assay: ULK1/TOM20 co-localisation immunofluorescence in PANC-1 cells; type: cell-based; design: pSer317 blot or TOM20 co-localisation; settings: PANC-1, 18 hours, alone
T1 sequence (O75385 1-1050): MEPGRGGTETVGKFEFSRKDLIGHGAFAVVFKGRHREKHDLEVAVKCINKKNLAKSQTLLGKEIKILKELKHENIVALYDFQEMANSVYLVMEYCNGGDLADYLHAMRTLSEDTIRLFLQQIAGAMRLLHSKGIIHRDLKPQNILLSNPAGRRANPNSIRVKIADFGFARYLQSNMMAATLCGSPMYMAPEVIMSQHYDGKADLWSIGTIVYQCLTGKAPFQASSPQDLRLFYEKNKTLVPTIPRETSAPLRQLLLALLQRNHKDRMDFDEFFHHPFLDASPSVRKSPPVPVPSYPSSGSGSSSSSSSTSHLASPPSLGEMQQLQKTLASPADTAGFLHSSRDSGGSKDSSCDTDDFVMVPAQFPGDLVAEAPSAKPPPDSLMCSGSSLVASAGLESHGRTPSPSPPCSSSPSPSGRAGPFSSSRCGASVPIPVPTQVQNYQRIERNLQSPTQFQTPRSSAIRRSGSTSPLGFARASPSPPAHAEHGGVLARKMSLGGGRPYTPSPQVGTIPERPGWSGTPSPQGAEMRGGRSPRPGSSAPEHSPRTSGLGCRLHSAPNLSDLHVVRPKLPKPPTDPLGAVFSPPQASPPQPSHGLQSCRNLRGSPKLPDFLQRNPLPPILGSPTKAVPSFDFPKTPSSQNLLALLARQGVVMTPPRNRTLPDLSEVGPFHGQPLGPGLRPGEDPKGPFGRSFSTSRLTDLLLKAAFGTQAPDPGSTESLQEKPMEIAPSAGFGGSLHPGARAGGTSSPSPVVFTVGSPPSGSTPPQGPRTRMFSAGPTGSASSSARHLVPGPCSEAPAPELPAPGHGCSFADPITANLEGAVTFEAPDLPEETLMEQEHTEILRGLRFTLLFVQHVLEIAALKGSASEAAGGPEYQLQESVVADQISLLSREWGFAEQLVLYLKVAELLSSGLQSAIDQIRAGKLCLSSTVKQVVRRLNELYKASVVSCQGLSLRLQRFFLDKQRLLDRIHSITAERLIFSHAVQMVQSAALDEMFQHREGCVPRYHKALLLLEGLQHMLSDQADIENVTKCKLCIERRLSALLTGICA
Method: as §1
For TOM20/ULK1 immunofluorescence, cells were seeded in a 384 well PerkinElmer CellCarrier Ultra plate 24 hours prior to treatment with compounds. Cells were treated for 18 hours after which they were fixed with 4% paraformaldehyde (PFA) in phosphate buffered saline (PBS) and blocked with 10% FBS and 0.1% Triton in PBS. Plates were incubated at 4° C. overnight, with 1:400 mouse anti-TOM20 (Santa Cruz, #sc-17764) and 1:400 rabbit anti-ULK1 (Cell Signalling Technologies, #0854). The following day, plates were incubated with 1:1000 goat anti-mouse Alexa 488 (ThermoFisher Scientific, #A-11029), 1:1000 goat anti-rabbit Alexa 568 (ThermoFisher Scientific, #A-11011) and 1.62 μM Hoechst 33342 at room temperature for 1 hour before imaging. For ATP5a/LC3 immunofluorescence, cells were fixed with ice-cold 1:1 MeOH: acetone and blocked with 3% BSA (Sigma-Aldrich, #A3803) in Dulbecco's PBS (D-PBS). Plates were incubated overnight at 4° C. with 1:400 LC3B (D11) XP Rabbit mAb Alexa Fluor 647 Conjugate (Cell Signalling Technologies, #65299) and 1:400 ATP5a (Cell Signalling Technologies, #18023) lightning-linked to Alexa Fluor 488. The following day, plates were incubated with 1.62 […] at room temperature for 1 hour before imaging. Excitation and emission spectra for each channel are as follows: Hoechst 33342=405/435-480 nm, Alexa 488=488/500-550 nm and Alexa 568=561/570-630 nm. Images were acquired at 40× and 63× magnification with water immersion lens.
To understand the temporal kinetics of NZ-65 and NZ-66, we assessed the recruitment of ULK1 to mitochondria, using co-localisation of ULK1 and TOM20 by immunofluorescence. […] After showing the co-localisation of ULK1 to the outer mitochondrial membrane (OMM) after ULKTAC treatment, we wanted to determine whether the ULKTACs induced mitophagy. To do this, we measured changes in Mfn2 under basal conditions and co-treatment with CCCP (FIG. 5C, D).

## N#CC(C#N)=NNc1cccc(Cl)c1 [CCCP, reference compound]
SH-SY5Y cells
  induction of mitophagy: induction of mitophagy

## COc1ccc(Nc2ncc(C(F)(F)F)c(NC3CC3)n2)cc1OC [SBP-7455, reference compound]
Mfn2
  ULKTAC mediated degradation of Mfn2 in presence of dual ULK1/2 inhibitor: additionally demonstrating the requirement for ULK1 for ULKTAC mediated degradation of Mfn2

## NC(=O)C(=O)c1c(-c2ccccc2)[nH]c2ccccc12 [TSPO ligand, reference compound]
ULK1
  co-localisation of ULK1 and TOM20: neither BL-918 nor the TSPO ligand alone induce co-localisation
